Test system: faecal egg count (parasites)
Assay: Nitric oxide donor and anthelmintic efficacy, time until faecal egg count rose to around 600 (Experiment 15)
Assay type: in vivo, sheep
Settings: 0.0001 g per kg liveweight oral with anthelmintic every four months
From the text: In a separate experiment 20 sheep (mixed male and females) received standard anthelmintic treatments similar to experiments 3 and 4, with anthelmintics and treatments given every four months. Treatment in 10 of these animals consisted of the anthelmintic dosing and S-nitroso-N-acetylpenicillamine, a nitric oxide donor at a dose of 0.0001 g per kg liveweight in an oral form. The other 10 received the anthelmintic and a glucose control. Anthelmintic successfulness in terms of time from treatment until faecal egg count rose to around 600 as described in experiments 3 and 4 was examined. […] FIG. 22 illustrates this.

SMILES: CC(=O)N[C@H](C(=O)O)C(C)(C)SN=O (racemic) [S-nitroso-N-acetylpenicillamine]
- effectiveness of anthelmintic (time until faecal egg count rose to around 600): better effectiveness of anthelmintic than control animals

— patent US6852333B1, “Agents and methods for promoting production gains in animals” (The Horticulture and Food Research Institute of New Zealand …, priority 1999, dated 2005)
